According to patent US20140088006A1, “Stem Cell Mobilization and Tissue Repair and Regeneration” (Wellstat Therapeutics Corporation, priority 2011, published 2014):
“And” between values parts separate entries of the source, which are not always exact repeats. Identical values can stand only once. No end group written: not given here.

Columns and labels:
[1] = test system: CFU-GEMM / CFU-GM colony-forming cells; experiment: CFU colony assay of peripheral blood on day 7 after 5 daily subcutaneous injections; format: in vivo, DBA/2J male mice
Method: Mobilization of hematopoietic stem and progenitor cells from bone marrow into peripheral blood is important for tissue regeneration. However, this physiological mechanism is often insufficient, including in elderly patients and people with diabetes. In order to look at the ability of Compound X mobilized stem cells to mediate tissue regeneration, multiple in vivo injections of Compound X were administered. A group of DBA/2J male mice were injected subcutaneously for 5 consecutive days with 250 ug/kg Compound X in Saline. Another group of mice received injections of vehicle only. Peripheral blood from 3 mice from each of these groups was then harvested from the orbital plexus at 7 days post initial injection. Blood was also harvested and pooled from 3 naïve mice to serve as an additional control group. To determine mobilization of pluripotent colony-forming cells from bone marrow into peripheral blood, mononuclear cells obtained from blood were plated into MethoCult 3434 media (Stem Cell Technologies 03434). Briefly, peripheral blood from three mice was pooled, diluted (1:1, v/v) with 0.9% saline (APP Pharmaceutical) and layered (2:1, v/v) onto 1-Step™1.077 A (Accurate Chemicals AN224510) in 15-ml centrifuge tubes. Cells were centrifuged at 600×g for 20 min at room temperature. The mononuclear cells were harvested from the interface between the plasma layer and the 1-Step™ A solution using a 1-ml syringe and 16G blunt-end needle (Stem Cell Technologies 28120). The cells were transferred to 15-ml centrifuge tubes and washed twice in 1×PBS. The cells were placed into 35-mm Petri dishes at 100,000 cells per dish with 5 dishes per group. Cells incubated for 10 days in a 37° C. and 5% CO2 humidified incubator. CFU-GM colonies consisting of granulocytic and monocytic cells and CFU-GEMM colonies representing mixed cell populations of granulocytes, macrophages and erythroid cells were then scored using an inverted microscope. Blood was taken at Zeitgeber Time 4 (ZT4) which corresponded to the physiological time of cell emigration from bone marrow—the circadian stem cell mobilization peak.

peripheral blood cells = experiment: FACS phenotype of peripheral blood cells after single subcutaneous injection; format: in vivo, C57Bl6 mice; settings: for Phenotype Lin−/Sca-1+ / Phenotype Lin−/Sca-1−: mononuclear cells; for Phenotype CD19+ / Phenotype Gr-1 High / Phenotype Gr-1 Low: individual mice
Method: C57Bl6 male mice, from 8 weeks to 4 month of age, from Harlan were used. […] 20 μl of blood was removed from each tube for WBC counts;
200 μl of blood was used for FACS analysis of cells phenotypes: briefly 50 μl of blood was transferred to a 15 ml polypropylene tube containing 1 ml ACK lysis buffer and the tubes left at room temperature for 6 minutes. 50 μl of a 1:50 dilution of Fc block (Pharmingen 01241A) along with 2 ul of anti-CD19FITC (Pharmingen 09654A) and 2 μl of anti-Gr-1PE (Pharmingen 01215A) was added and the tubes left at room temperature for 30 minutes protected from light. The cells were washed with 3 ml FACS buffer, resuspended in 300 μl FACS buffer and kept on ice, protected from light until acquired on the FACSCalibur.
For flow cytometry analysis the blood was stained with antibodies and a phenotype determined by FACS as described before. In addition to the whole blood FACS phenotyping, Ficolled blood was also stained to monitor the Lin−/Sca+ phenotype. The cells were washed with 3 ml FACS buffer, resuspended in 300 μl FACS buffer and kept on ice, protected from light until acquired on the FACSCalibur

[2] = test system: CFU-GEMM / CFU-GM progenitor cells; experiment: CFU colony assay of peripheral blood after 4 daily subcutaneous injections; format: in vivo, C57Bl/6 male mice; settings: for CFU-GEMM number, AVG / CFU-GEMM number: 1 hr after injection; for CFU-GEMM number: individual dishes
Method: This example is based on a protocol for a 4-day course of once-daily Compound X injections into C57Bl/6 male mice similar to G-CSF. Two effective dose levels of Compound X were found previously to mobilize HSC 1 hr after single injection and were selected for this experiment. Four-month old C57Bl/6 male mice (Jackson Laboratories) were subcutaneously injected with 0.9% saline, 125 μg/kg Compound X or 250 μg/kg Compound X on days 1, 2, 3 and 4 as described in Table 4. Each day, one-hour post injections, peripheral blood from 3 mice per group was harvested from the orbital plexus into EDTA-containing tubes. On day 4, a femur and spleen were also removed from mice to assess by FACS whether any toxicity aroused from repeated injections of Compound X.
As in the previous example to determine mobilization of colony-forming cells out of the bone marrow, mononuclear cells from peripheral blood were plated into MethoCult 3434 media (Stem Cell Technologies). Briefly, after white blood cell counting, the remaining peripheral blood was diluted (1:1, v/v) with 0.9% saline (APP Pharmaceutical) and layered (2:1, v/v) onto 1-Step™1.077 A (Accurate Chemicals) in 15-ml centrifuge tubes. Cells were centrifuged at 600×g for 20 min at room temperature. The mononuclear cells were harvested from the interface between the plasma layer and the 1-Step™ A solution using a 1-ml syringe and blunt-end needle. The cells were transferred to 15-ml centrifuge tubes and washed twice in 1×PBS. Cells were resuspended in 1 ml of IMDM and cell counts were obtained using the Coulter counter. Cells were placed into 35-mm Petri dishes at 200,000 cells per dish with 5 dishes per group. Cells incubated for 10 days in a 37° C. and 5% CO2 humidified incubator. CFU colonies were then scored using an inverted microscope—CFU-GM detected on day 7 and CFU-GEMM—on day 10. Data presented in Tables 7, 8 and 9, FIGS. 3 and 4.

[3] = 250 ug/kg s.c. 5 consecutive days, day 7
[4] = 250 ug/kg s.c. 5 consecutive days, day 7, individual dishes
[5] = 250 ug/kg/day for 5 days, day 7
[6] = DBA mice, multiple s.c. 250 ug/kg

## FPHFDLSHGSAQV [Compound X, tridecapeptide that acts on stem cells]
[1]; [3]
  CFU-GEMM AVG: 11.4 colonies/100,000 MNCs
  CFU-GEMM Average: 79.8 Colonies/ml of Peripheral Blood
  CFU-GM AVG: 12.4 colonies/100,000 MNCs
  CFU-GM Average: 86.8 Colonies/ml of Peripheral Blood
[1]; [4]
  CFU-GEMM Colony #: 8 colonies/100,000 MNCs (2×) and 13 colonies/100,000 MNCs and 12 colonies/100,000 MNCs and 16 colonies/100,000 MNCs
  CFU-GM Colony #: 13 colonies/100,000 MNCs (2×) and 14 colonies/100,000 MNCs (2×) and 8 colonies/100,000 MNCs
[1]; [5]
  number of circulating CFU-GM: did not change
  total CFU-GEMM number in circulation vs naïve or vehicle mice: 3 times higher
[1]; [6]
  increase in CFU-GEMM number per ml of blood vs saline control group: 3.3 fold
  increase in CFU-GEMM number per ml of blood vs untreated control group: 3.8 fold
Peripheral blood cells; 50 μg/kg, 1-hour
  Phenotype Lin−/Sca-1+: 0.4%
  Phenotype Lin−/Sca-1−: 0.8%
Peripheral blood cells; 50 μg/kg, 30-min
  Phenotype Lin−/Sca-1+: 0.5%
  Phenotype Lin−/Sca-1−: 1.0%
Peripheral blood cells; 250 μg/kg, 1-hour
  Phenotype Lin−/Sca-1+: 0.8%
  Phenotype Lin−/Sca-1−: 1.1%
Peripheral blood cells; 250 μg/kg, 30-min
  Phenotype Lin−/Sca-1+: 0.6%
  Phenotype Lin−/Sca-1−: 1.1%
Peripheral blood cells; s.c. 50 μg/kg, 1 hr
  Phenotype CD19+: 38.3% and 41.0% and 29.6%
  Phenotype Gr-1 High: 26.0% and 27.7% and 29.4%
  Phenotype Gr-1 Low: 3.5% (2×) and 7.0%
Peripheral blood cells; s.c. 50 μg/kg, 4 hr
  Phenotype CD19+: 33.9% and 40.9% and 29.1%
  Phenotype Gr-1 High: 25.0% and 16.7% and 29.1%
  Phenotype Gr-1 Low: 6.2% and 7.6% and 5.3%
Peripheral blood cells; s.c. 250 μg/kg, 1 hr
  Phenotype CD19+: 14.8% and 4.8% and 14.5%
  Phenotype Gr-1 High: 55.2% and 18.7% and 6.8%
  Phenotype Gr-1 Low: 3.5% and 2.1% and 2.4%
Peripheral blood cells; s.c. 250 μg/kg, 4 hr
  Phenotype CD19+: 46.7% and 48.5% and 46.6%
  Phenotype Gr-1 High: 16.1% and 12.9% and 11.7%
  Phenotype Gr-1 Low: 5.1% and 5.5% and 6.6%
Peripheral blood cells; s.c. 50 or 250 μg/kg, 30 min and 1 hr
  mobilization of lineage negative progenitors: did not have such an effect
[2]; 125 μg/kg s.c. daily, Day 1
  CFU-GEMM number, AVG: 2.4 per 100000 mononuclear cells
  CFU-GEMM number: 2 per 100000 mononuclear cells (4×) and 4 per 100000 mononuclear cells
[2]; 125 μg/kg s.c. daily, Day 2
  CFU-GEMM number, AVG: 2.8 per 100000 mononuclear cells
  CFU-GEMM number: 5 per 100000 mononuclear cells and 3 per 100000 mononuclear cells (2×) and 1 per 100000 mononuclear cells and 2 per 100000 mononuclear cells
[2]; 125 μg/kg s.c. daily, Day 3
  CFU-GEMM number, AVG: 0.4 per 100000 mononuclear cells
  CFU-GEMM number: 1 per 100000 mononuclear cells (2×) and 0 per 100000 mononuclear cells (3×)
[2]; 125 μg/kg s.c. daily, Day 4
  CFU-GEMM number, AVG: 0.8 per 100000 mononuclear cells
  CFU-GEMM number: 0 per 100000 mononuclear cells (2×) and 2 per 100000 mononuclear cells and 1 per 100000 mononuclear cells (2×)
[2]; 250 μg/kg over 4 days, all days
  increase in multilineage CFU-GEMM colonies vs saline: ≥ 2 fold
[2]; 250 μg/kg s.c. daily, Day 1
  CFU-GEMM number, AVG: 2.6 per 100000 mononuclear cells
  CFU-GEMM number: 4 per 100000 mononuclear cells (2×) and 1 per 100000 mononuclear cells and 2 per 100000 mononuclear cells (2×)
[2]; 250 μg/kg s.c. daily, Day 2
  CFU-GEMM number, AVG: 3.6 per 100000 mononuclear cells
  CFU-GEMM number: 2 per 100000 mononuclear cells and 6 per 100000 mononuclear cells (2×) and 3 per 100000 mononuclear cells and 1 per 100000 mononuclear cells
[2]; 250 μg/kg s.c. daily, Day 3
  CFU-GEMM number, AVG: 2.8 per 100000 mononuclear cells
  CFU-GEMM number: 2 per 100000 mononuclear cells (2×) and 4 per 100000 mononuclear cells and 3 per 100000 mononuclear cells (2×)
[2]; 250 μg/kg s.c. daily, Day 4
  CFU-GEMM number, AVG: 4 per 100000 mononuclear cells
  CFU-GEMM number: 4 per 100000 mononuclear cells (3×) and 3 per 100000 mononuclear cells and 5 per 100000 mononuclear cells
[2]; 250 μg/kg, day 3
  increase in CFU-GEMM vs saline: 4.7 fold
[2]; s.c. daily for 4 days
  mobilization of granulocytic and macrophage precursors CFU-GM: did not affect mobilization
